ChEMBL document CHEMBL3228019, “Aminoglycoside antibiotics. 2. N,N-Dialkylkanamycins” (1979)
Converted amounts (≈) assume the structure as drawn.

What was measured:
Format in all cases: functional
Staphylococcus aureus [1] = assay: Antibacterial activity against Staphylococcus aureus 9537 assessed as growth inhibition measured after overnight incubation by two-fold broth dilution method
Staphylococcus aureus [2] = assay: Antibacterial activity against Staphylococcus aureus 20240 expressing aminoglycoside-3'-phosphotransferase-4 assessed as growth inhibition measured after overnight incubation by two-fold broth dilution method
Escherichia coli [3] = assay: Antibacterial activity against Escherichia coli 9632 assessed as growth inhibition measured after overnight incubation by two-fold broth dilution method
Escherichia coli [4] = assay: Antibacterial activity against Escherichia coli 20665 expressing aminoglycoside-3'-phosphotransferase-1 assessed as growth inhibition measured after overnight incubation by two-fold broth dilution method
Escherichia coli [5] = assay: Antibacterial activity against Escherichia coli 20732 expressing aminoglycoside-2''-nucleotidyltransferase assessed as growth inhibition measured after overnight incubation by two-fold broth dilution method
Escherichia coli [6] = assay: Antibacterial activity against Escherichia coli 21218 expressing aminoglycoside-6'-acetyltransferase assessed as growth inhibition measured after overnight incubation by two-fold broth dilution method
Enterobacter cloacae [7] = assay: Antibacterial activity against Enterobacter cloacae 9656 assessed as growth inhibition measured after overnight incubation by two-fold broth dilution method
Enterobacter cloacae [8] = assay: Antibacterial activity against Enterobacter cloacae 20364 expressing aminoglycoside-3'-phosphotransferase-1 assessed as growth inhibition measured after overnight incubation by two-fold broth dilution method
Klebsiella pneumoniae = assay: Antibacterial activity against Klebsiella pneumoniae 9977 assessed as growth inhibition measured after overnight incubation by two-fold broth dilution method
Providencia rettgeri [9] = assay: Antibacterial activity against Proteus rettgeri 9637 assessed as growth inhibition measured after overnight incubation by two-fold broth dilution method
Providencia rettgeri [10] = assay: Antibacterial activity against Proteus rettgeri 21207 expressing aminoglycoside-2'-acetyltransferase assessed as growth inhibition measured after overnight incubation by two-fold broth dilution method
Pseudomonas aeruginosa [11] = assay: Antibacterial activity against Pseudomonas aeruginosa 9843a assessed as growth inhibition measured after overnight incubation by two-fold broth dilution method
Pseudomonas aeruginosa [12] = assay: Antibacterial activity against Pseudomonas aeruginosa 20610 expressing aminoglycoside-3'-phosphotransferase and aminoglycoside-3-acetyltransferase-1 assessed as growth inhibition measured after overnight incubation by two-fold broth dilution method
Pseudomonas aeruginosa [13] = assay: Antibacterial activity against Pseudomonas aeruginosa 20653 expressing aminoglycoside-3'-phosphotransferase-4 assessed as growth inhibition measured after overnight incubation by two-fold broth dilution method
Pseudomonas aeruginosa [14] = assay: Antibacterial activity against Pseudomonas aeruginosa 20897 expressing aminoglycoside-3'-phosphotransferase-1 and aminoglycoside-6'-acetyltransferase assessed as growth inhibition measured after overnight incubation by two-fold broth dilution method
Pseudomonas aeruginosa [15] = assay: Antibacterial activity against kanamycin A/B impermeable Pseudomonas aeruginosa 21509 assessed as growth inhibition measured after overnight incubation by two-fold broth dilution method

| SMILES | MIC (Staphylococcus aureus [1]) [mg/L] | MIC (Staphylococcus aureus [2]) [mg/L] | MIC (Escherichia coli [3]) [mg/L] | MIC (Escherichia coli [4]) [mg/L] | MIC (Escherichia coli [5]) [mg/L] | MIC (Escherichia coli [6]) [mg/L] | MIC (Enterobacter cloacae [7]) [mg/L] | MIC (Enterobacter cloacae [8]) [mg/L] | MIC (Klebsiella pneumoniae) [mg/L] | MIC (Providencia rettgeri [9]) [mg/L] | MIC (Providencia rettgeri [10]) [mg/L] | MIC (Pseudomonas aeruginosa [11]) [mg/L] | MIC (Pseudomonas aeruginosa [12]) [mg/L] | MIC (Pseudomonas aeruginosa [13]) [mg/L] | MIC (Pseudomonas aeruginosa [14]) [mg/L] | MIC (Pseudomonas aeruginosa [15]) [mg/L] |
| --- | --- | --- | --- | --- | --- | --- | --- | --- | --- | --- | --- | --- | --- | --- | --- | --- |
| N[C@@H]1C[C@H](N)[C@@H](O[C@H]2O[C@@H]3CNC(=O)O[C@H]3[C@H](O)[C@H]2O)[C@H](O)[C@H]1O[C@H]1O[C@H](CO)[C@@H](O)[C@@H]2NC(=O)O[C@@H]12 | 32 (≈ 59.6 µM) | 32 (≈ 59.6 µM) | 32 (≈ 59.6 µM) | 63 (≈ 117 µM) | 125 (≈ 233 µM) | 63 (≈ 117 µM) | 63 (≈ 117 µM) | 125 (≈ 233 µM) | 63 (≈ 117 µM) | 63 (≈ 117 µM) | 125 (≈ 233 µM) | 32 (≈ 59.6 µM) | 32 (≈ 59.6 µM) | 32 (≈ 59.6 µM) | 32 (≈ 59.6 µM) | 32 (≈ 59.6 µM) |
| CNC[C@H]1O[C@H](O[C@H]2[C@H](O)[C@@H](O[C@H]3O[C@H](CO)[C@@H](O)[C@H](NC)[C@H]3O)[C@H](N)C[C@@H]2N)[C@H](N)[C@@H](O)[C@@H]1O | 4 (≈ 7.82 µM) | 8 (≈ 15.6 µM) | 16 (≈ 31.3 µM) | 63 (≈ 123 µM) | 63 (≈ 123 µM) | 63 (≈ 123 µM) | 8 (≈ 15.6 µM) | 63 (≈ 123 µM) | 4 (≈ 7.82 µM) | 16 (≈ 31.3 µM) | 63 (≈ 123 µM) | 8 (≈ 15.6 µM) | 8 (≈ 15.6 µM) | 8 (≈ 15.6 µM) | 8 (≈ 15.6 µM) | 16 (≈ 31.3 µM) |
| CNC[C@H]1O[C@H](O[C@H]2[C@H](O)[C@@H](O[C@H]3O[C@H](CO)[C@@H](O)[C@H](NC)[C@H]3O)[C@H](N)C[C@@H]2N)[C@H](O)[C@@H](O)[C@@H]1O | > 125 | > 125 | > 125 | > 125 | > 125 | 125 (≈ 244 µM) | > 125 | > 125 | > 125 | > 125 | > 125 | > 125 | > 125 | > 125 | > 125 | > 125 |
| CCNC[C@H]1O[C@H](O[C@H]2[C@H](O)[C@@H](O[C@H]3O[C@H](CO)[C@@H](O)[C@H](NCC)[C@H]3O)[C@H](N)C[C@@H]2N)[C@H](O)[C@@H](O)[C@@H]1O | 63 (≈ 117 µM) | > 125 | > 125 | > 125 | > 125 | > 125 | 125 (≈ 231 µM) | > 125 | > 125 | 32 (≈ 59.2 µM) | 4 (≈ 7.4 µM) | > 125 | > 125 | > 125 | > 125 | > 125 |
| NC[C@H]1O[C@H](O[C@H]2[C@H](O)[C@@H](O[C@H]3O[C@H](CO)[C@@H](O)[C@H](N)[C@H]3O)[C@H](N)C[C@@H]2N)[C@H](N)[C@@H](O)[C@@H]1O [BEKANAMYCIN] | 0.5 (≈ 1.03 µM) | > 125 | 2 (≈ 4.14 µM) | > 125 | 32 (≈ 66.2 µM) | 32 (≈ 66.2 µM) | 2 (≈ 4.14 µM) | > 125 | 0.25 (≈ 0.517 µM) | 0.5 (≈ 1.03 µM) | 32 (≈ 66.2 µM) | 63 (≈ 130 µM) | 32 (≈ 66.2 µM) | > 125 | > 125 | > 125 |
| NC[C@@H]1O[C@@H](O[C@H]2[C@H](O)[C@@H](O[C@H]3O[C@H](CO)[C@@H](O)[C@H](N)[C@H]3O)[C@H](N)C[C@@H]2N)[C@@H](O)[C@H](O)[C@H]1O [KANAMYCIN A] | 1 (≈ 2.06 µM) | > 125 | 4 (≈ 8.26 µM) | > 125 | 125 (≈ 258 µM) | > 125 | 4 (≈ 8.26 µM) | > 125 | 0.25 (≈ 0.516 µM) | 0.5 (≈ 1.03 µM) | 8 (≈ 16.5 µM) | 63 (≈ 130 µM) | 32 (≈ 66 µM) | > 125 | > 125 | > 125 |
